The text below walks through data of PMC3617406 (Molecular pharmaceutics, 2013).

The target of one test is T1, human NTCP (Homo sapiens, UniProt Q14973).
T1 sequence (Q14973 1-349): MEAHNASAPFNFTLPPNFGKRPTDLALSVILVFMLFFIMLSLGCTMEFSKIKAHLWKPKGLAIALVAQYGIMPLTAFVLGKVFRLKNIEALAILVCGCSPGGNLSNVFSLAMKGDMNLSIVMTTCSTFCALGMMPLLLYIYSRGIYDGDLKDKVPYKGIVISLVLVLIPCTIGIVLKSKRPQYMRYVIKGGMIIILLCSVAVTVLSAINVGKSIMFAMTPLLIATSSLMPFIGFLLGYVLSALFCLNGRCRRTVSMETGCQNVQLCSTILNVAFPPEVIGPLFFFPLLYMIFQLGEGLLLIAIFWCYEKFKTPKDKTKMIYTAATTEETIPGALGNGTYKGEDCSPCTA
The format is cell-based. Particulars: for potency estimated from few doses: read-out: Estimated Ki for NTCP; for NTCP inhibitor or non-inhibitor: inhibitor = Ki less than 300 μM.

The next test addresses T2, human ASBT (Homo sapiens, UniProt Q12908).
T2 sequence (Q12908 1-348): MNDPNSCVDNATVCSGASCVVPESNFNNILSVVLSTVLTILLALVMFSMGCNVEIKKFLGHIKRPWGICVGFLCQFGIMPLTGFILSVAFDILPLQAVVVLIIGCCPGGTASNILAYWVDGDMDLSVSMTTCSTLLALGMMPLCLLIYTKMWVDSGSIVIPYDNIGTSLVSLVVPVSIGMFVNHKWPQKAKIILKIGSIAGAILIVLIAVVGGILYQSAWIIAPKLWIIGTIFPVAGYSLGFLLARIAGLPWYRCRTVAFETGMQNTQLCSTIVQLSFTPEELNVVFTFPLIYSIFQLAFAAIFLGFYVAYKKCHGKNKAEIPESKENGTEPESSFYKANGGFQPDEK
The class given is cell-based. The note with it: for potency estimated from few doses: read-out: Estimated Ki for ASBT; for taurocholate uptake into ASBT-MDCK cells, percent of control: single drug concentration, same as in NTCP screening (typically 100 μM); for ASBT inhibitor or non-inhibitor: inhibitor = Ki below 300 μM.

Where a name gives a salt, the structure may show the parent alone. Some results are limits rather than exact numbers.

Regarding `CCOC(=O)C1=C[C@@H](OC(CC)CC)[C@H](NC(C)=O)[C@@H](N)C1` [Oseltamivir], the potency estimated from few doses was more than 100 µM at human NTCP and 1020 ± 49 µM on human ASBT.
For the compound `CC[C@H](C)C(=O)O[C@H]1C[C@@H](C)C=C2C=C[C@H](C)[C@H](CC[C@@H]3C[C@@H](O)CC(=O)O3)[C@H]21` [Lovastatin], on human NTCP, the “NTCP inhibitor or non-inhibitor” value is “NTCP inhibitors” and the potency estimated from few doses is 202 ± 32 µM. At human ASBT, the potency estimated from few doses was 21.7 ± 2.1 µM and the “taurocholate uptake into ASBT-MDCK cells, percent of control” value is on record as “below 50%”.
On to `Nc1nc(N)c2nc(-c3ccccc3)c(N)nc2n1` [Triamterene], for which the potency estimated from few doses is 411 ± 139 µM on human NTCP and 110 ± 3 µM on human ASBT.
Consider `COC(=O)[C@@H]1[C@H]2C[C@H]3c4[nH]c5ccccc5c4CCN3C[C@@H]2CC[C@@H]1O` [Yohimbine], for which the potency estimated from few doses at human NTCP was more than 100 µM; at human ASBT it was 377 ± 442 µM.
The like results for `CN/C(=N/CCSCc1nc[nH]c1C)NC#N` [Cimetidine] were, in that order, 332 ± 73 µM and 208 ± 51 µM.
Turning to `COC(=O)C1=C(C)NC(C)=C(C(=O)OC(C)C)C1c1cccc2nonc12` (stereo not drawn) [Isradipine], at human NTCP, the “NTCP inhibitor or non-inhibitor” value is listed as “NTCP inhibitors” and the potency estimated from few doses was 99.5 ± 14 µM. For the same compound, on human ASBT, the potency estimated from few doses was 17.9 ± 2.3 µM and the “taurocholate uptake into ASBT-MDCK cells, percent of control” value is “below 50%”.
Consider `COc1cccc2c1C(=O)c1c(O)c3c(c(O)c1C2=O)C[C@@](O)(C(C)=O)C[C@@H]3O[C@H]1C[C@H](N)[C@H](O)[C@H](C)O1` [Daunorubicin], for which the potency estimated from few doses on human NTCP and at human ASBT was more than 100 µM throughout.
As to `CCCNCC(O)COc1ccccc1C(=O)CCc1ccccc1` (stereo not drawn) [Propafenone HCl], the potency estimated from few doses on human NTCP is 402 ± 116 µM; at human ASBT, 50.3 ± 18 µM.
As to `O=C(c1ccc(OCCN2CCCCC2)cc1)c1c(-c2ccc(O)cc2)sc2cc(O)ccc12` [Raloxifene HCl], the potency estimated from few doses at human ASBT is 65.8 ± 9.2 µM.
On to `CCN(CC)CCCC(C)Nc1ccnc2cc(Cl)ccc12` (stereo not drawn) [Chloroquine], for which the potency estimated from few doses at human NTCP was 336 ± 101 µM.
Take `CC(C)c1nc(CN(C)C(=O)N[C@H](C(=O)N[C@@H](Cc2ccccc2)C[C@H](O)[C@H](Cc2ccccc2)NC(=O)OCc2cncs2)C(C)C)cs1` [Ritonavir]: on human ASBT, the potency estimated from few doses is 47.3 ± 9.7 µM and the “taurocholate uptake into ASBT-MDCK cells, percent of control” value is given as “below 50%”.
Turning to `COCc1c(C(C)C)nc(C(C)C)c(/C=C/[C@@H](O)C[C@@H](O)CC(=O)O)c1-c1ccc(F)cc1` [Cerivastatin], the “NTCP inhibitor or non-inhibitor” value on human NTCP is given as “NTCP inhibitors”.
`CCCCc1nc(Cl)c(CO)n1Cc1ccc(-c2ccccc2-c2nn[nH]n2)cc1` [Losartan]: the potency estimated from few doses on human ASBT was 139 ± 58 µM.
For the compound `CCCc1nc(C(C)(C)O)c(C(=O)O)n1Cc1ccc(-c2ccccc2-c2nnn[nH]2)cc1` [Olmesartan], at human ASBT, the “ASBT inhibitor or non-inhibitor” value is “inhibited NTCP but not ASBT” and the potency estimated from few doses is 1050 ± 422 µM.
On to `CCOC(=O)C1=C(C)NC(C)=C(C(=O)OC)C1c1cccc([N+](=O)[O-])c1` (stereo not drawn) [Nitrendipine], for which the potency estimated from few doses at human ASBT is 31.7 ± 6.5 µM.
For `COCCOC(=O)C1=C(C)NC(C)=C(C(=O)OC(C)C)C1c1cccc([N+](=O)[O-])c1` (stereo not drawn) [Nimodipine], on human ASBT, the potency estimated from few doses was 30.9 ± 1.7 µM and the “taurocholate uptake into ASBT-MDCK cells, percent of control” value is recorded as “below 50%”.
Regarding `Clc1ccc(C(Cn2ccnc2)OCc2ccsc2Cl)c(Cl)c1` (stereo not drawn) [Tioconazole], at human ASBT, the “ASBT inhibitor or non-inhibitor” value is “ASBT inhibitors”; the potency estimated from few doses is 11.9 ± 2.7 µM; the “taurocholate uptake into ASBT-MDCK cells, percent of control” value was “below 50%”.
With `CC(C)c1nc(N(C)S(C)(=O)=O)nc(-c2ccc(F)cc2)c1/C=C/[C@@H](O)C[C@@H](O)CC(=O)O` [Rosuvastatin], the potency estimated from few doses on human ASBT is 164 ± 34 µM.
For `NS(=O)(=O)c1cc2c(cc1C(F)(F)F)NC(Cc1ccccc1)NS2(=O)=O` (stereo not drawn) [Bendroflumethiazide], on human ASBT, the potency estimated from few doses was 168 ± 10 µM.
